In patent US10744136B2, “Sulfonamide derivatives as JAK inhibitors” (Avista Pharma Solutions, Inc., priority 2018, dated 2020):

Target: T1, JAK1 (Homo sapiens, UniProt P23458)
T1 construct: purchased Thermo Fisher Scientific
Assay: Z'-LYTE JAK1 kinase screen (Thermo Fisher Scientific)
Type: biochemical
Details: 1% DMSO, ATP at Km apparent; for inhibition at 0.01 µM: test compound 10 nM; for inhibition at 0.1 µM: test compound 100 nM; for % Inhibition 1000 nm: test compound 1000 nm (so in the source)
Protocol: The example compounds were screened for Jak1 activity at Thermo Fisher Scientific, using their Z′-Lyte™ protocol, as described below. Selectivity screening against other kinases can be performed following similar procedures. Z′-LYTE Assay Conditions: The Test Compounds are screened in 1% DMSO (final) in the well. Three screening concentrations (10, 100, and 1000 nM) of test compounds were used. Peptide/Kinase Mixtures: All Peptide/Kinase Mixtures are diluted to a 2× working concentration in the appropriate Kinase Buffer (For JAK1, the 2×JAK1/Tyr 06 mixture is prepared in 50 mM HEPES pH 6.5, 0.01% BRIJ-35, 10 mM MgCl2, 1 mM EGTA, 0.02% NaN3. The final 10 μL Kinase Reaction consists of 21.2-91.5 ng JAK1 and 2 μM Tyr 06 in 50 mM HEPES pH 7.0, 0.01% BRIJ-35, 10 mM MgCl2, 1 mM EGTA, 0.01% NaN3. After the 1 hour Kinase Reaction incubation, 5 μL of a 1:128 dilution of Development Reagent A is added). ATP Solution: All ATP Solutions are diluted to a 4× working concentration in Kinase Buffer (50 mM HEPES pH 7.5, 0.01% BRIJ-35, 10 mM MgCl2, 1 mM EGTA). ATP: Km apparent is previously determined using a Z′-LYTE assay. 10× Novel PKC Lipid Mix: 2 mg/ml Phosphatidyl Serine, 0.2 mg/ml DAG in 20 mM HEPES, pH 7.4, 0.3% CHAPS. For 5 mL 10× Novel PKC Lipid Mix: • 1. Add 10 mgs Phosphatidyl Serine (Avanti Polar Lipids Part #8400032C or 840039C) and 1 mg DAG (Avanti Polar Lipids Part #800811C) to a glass tube. • 2. Remove the chloroform from lipid mixture by evaporating to a clear, thin film under a stream of nitrogen. Continuous rotation of the tube, at an angle to ensure maximum surface area of the lipid solution, will promote the thinnest film. • 3. Add 5 mLs resuspension buffer, 20 mM HEPES, 0.3% CHAPS, pH 7.4, to the dried lipid mix • 4. Heat gently to 50-60° C. for 1-2 minutes and vortex in short intervals until the lipids are dissolved to a clear or slightly hazy solution. The lipids are typically in solution after 2-3 heat/vortex cycles. • 5. Cool to room temperature, aliquot into single use volumes and store at −20° C. Assay Protocol Bar-coded Corning, low volume NBS, black 384-well plate (Corning Cat. #4514) • 1. 100 nL—100× Test Compound in 100% DMSO • 2. 2.4 μL—Kinase buffer • 3. 5 μL—2× Peptide/Kinase Mixture • 4. 2.5 μL—4×ATP Solution • 5. 30-second plate shake • 6. 60-minute Kinase Reaction incubation at room temperature • 7. 5 μL—Development Reagent Solution • 8. 30-second plate shake • 9. 60-minute Development Reaction incubation at room temperature • 10. Read on fluorescence plate reader and analyze the data.

T1 sequence (P23458 whole entry): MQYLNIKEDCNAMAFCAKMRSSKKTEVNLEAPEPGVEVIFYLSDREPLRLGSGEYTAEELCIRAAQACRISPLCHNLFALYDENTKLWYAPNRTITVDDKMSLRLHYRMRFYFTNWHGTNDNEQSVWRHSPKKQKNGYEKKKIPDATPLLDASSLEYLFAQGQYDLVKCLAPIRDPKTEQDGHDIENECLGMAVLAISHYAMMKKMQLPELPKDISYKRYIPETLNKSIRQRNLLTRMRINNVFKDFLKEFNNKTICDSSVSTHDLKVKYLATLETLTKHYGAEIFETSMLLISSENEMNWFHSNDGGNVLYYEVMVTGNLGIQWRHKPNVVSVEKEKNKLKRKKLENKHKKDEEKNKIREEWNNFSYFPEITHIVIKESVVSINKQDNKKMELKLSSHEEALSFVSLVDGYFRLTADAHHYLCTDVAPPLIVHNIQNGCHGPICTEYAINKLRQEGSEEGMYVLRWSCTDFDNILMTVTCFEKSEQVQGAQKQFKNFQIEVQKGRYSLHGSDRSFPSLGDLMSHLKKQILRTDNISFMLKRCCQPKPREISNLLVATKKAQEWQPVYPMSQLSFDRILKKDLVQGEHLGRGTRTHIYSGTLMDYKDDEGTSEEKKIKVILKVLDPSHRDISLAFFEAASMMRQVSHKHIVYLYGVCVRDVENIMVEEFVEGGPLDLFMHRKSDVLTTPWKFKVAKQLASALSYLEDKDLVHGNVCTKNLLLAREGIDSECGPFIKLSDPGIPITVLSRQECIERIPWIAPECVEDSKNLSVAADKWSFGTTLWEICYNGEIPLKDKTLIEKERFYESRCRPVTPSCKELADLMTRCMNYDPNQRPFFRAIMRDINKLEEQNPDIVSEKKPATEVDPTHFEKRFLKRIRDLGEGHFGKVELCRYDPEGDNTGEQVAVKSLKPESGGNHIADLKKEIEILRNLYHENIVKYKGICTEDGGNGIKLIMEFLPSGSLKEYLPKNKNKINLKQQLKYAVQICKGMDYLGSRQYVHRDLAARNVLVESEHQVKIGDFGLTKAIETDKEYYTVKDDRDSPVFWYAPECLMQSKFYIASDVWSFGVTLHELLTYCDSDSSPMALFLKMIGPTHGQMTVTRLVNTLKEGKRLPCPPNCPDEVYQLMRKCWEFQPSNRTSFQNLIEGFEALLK

inhibition at 0.01 µM	inhibition at 0.1 µM	% Inhibition 1000 nm	SMILES
46%	85%	98%	CN(c1ncnc2[nH]ccc12)C1CC2(CC(NS(=O)(=O)CCC(F)(F)F)C2)C1 (stereo not drawn) [Compound 21, 3,3,3-trifluoro-N-[2-[methyl(7H-pyrrolo[2,3-d]pyrimidin-4-yl)amino]spiro[3.3]heptan-6-yl]propane-1-sulfonamide]
2%	4%	19%	CNS(=O)(=O)C1CC2(CC(N(C)c3ncnc4[nH]ncc34)C2)C1 (stereo not drawn) [Compound 25, N-methyl-6-[methyl(1H-pyrazolo[3,4-d]pyrimidin-4-yl)amino]spiro[3.3]heptane-2-sulfonamide]
43%	89%	99%	CN(c1ncnc2[nH]ccc12)C1CC2(C1)CC(S(=O)(=O)N1CCCC1)C2 (stereo not drawn) [Compound 30, N-methyl-N-(2-pyrrolidin-1-ylsulfonylspiro[3.3]heptan-6-yl)-7H-pyrrolo[2,3-d]pyrimidin-4-amine]
38%	83%	95%	CCCS(=O)(=O)NC1CC2(C1)CC(N(C)c1ncnc3[nH]ccc13)C2 (stereo not drawn) [Compound 17, N-[2-[methyl(7H-pyrrolo[2,3-d]pyrimidin-4-yl)amino]spiro[3.3]heptan-6-yl]propane-1-sulfonamide]
55%	92%	98%	CN(c1ncnc2[nH]ccc12)C1CC2(C1)CC(S(=O)(=O)N(C)C)C2 (stereo not drawn) [Compound 29, N,N-dimethyl-6-[methyl(7H-pyrrolo[2,3-d]pyrimidin-4-yl)amino]spiro[3.3]heptane-2-sulfonamide]
4%	21%	72%	CNS(=O)(=O)C1CC2(CC(N(C)c3ncnc4[nH]cnc34)C2)C1 (stereo not drawn) [Compound 24, N-methyl-6-[methyl(9H-purin-6-yl)amino]spiro[3.3]heptane-2-sulfonamide]
28%	76%	96%	CCS(=O)(=O)NC1CC2(C1)CC(N(C)c1ncnc3[nH]ccc13)C2 (stereo not drawn) [Compound 16, N-[2-[methyl(7H-pyrrolo[2,3-d]pyrimidin-4-yl)amino]spiro[3.3]heptan-6-yl]ethanesulfonamide]
33%	82%	97%	CN(c1ncnc2[nH]ccc12)C1CC2(CC(NS(=O)(=O)C3CCCC3)C2)C1 (stereo not drawn) [Compound 20, N-[2-[methyl(7H-pyrrolo[2,3-d]pyrimidin-4-yl)amino]spiro[3.3]heptan-6-yl]cyclopentanesulfonamide]
66%	94%	97%	CCS(=O)(=O)NCC1CC2(C1)CC(N(C)c1ncnc3[nH]ccc13)C2 (stereo not drawn) [Compound 23, N-((6-(methyl(7H-pyrrolo[2,3-d]pyrimidin-4-yl)amino)spiro[3.3]heptan-2-yl)methyl)ethanesulfonamide]

Further lines, the molecule ahead of its results:

SMILES	inhibition at 0.01 µM	inhibition at 0.1 µM	% Inhibition 1000 nm
CN(c1ncnc2[nH]ccc12)C1CC2(CC(NS(=O)(=O)c3ccc(Cl)cc3)C2)C1 (stereo not drawn) [Compound 13, 4-chloro-N-[2-[methyl(7H-pyrrolo[2,3-d]pyrimidin-4-yl)amino]spiro[3.3]heptan-6-yl]benzenesulfonamide]	27%	77%	95%
CCNS(=O)(=O)C1CC2(CC(N(C)c3ncnc4[nH]ccc34)C2)C1 (stereo not drawn) [Compound 2, N-ethyl-6-[methyl(7H-pyrrolo[2,3-d]pyrimidin-4-yl)amino]spiro[3.3]heptane-2-sulfonamide]	52%	90%	98%
CN(c1ncnc2[nH]ccc12)C1CC2(C1)CC(S(=O)(=O)NCC(F)(F)F)C2 (stereo not drawn) [Compound 6, 6-[methyl(7H-pyrrolo[2,3-d]pyrimidin-4-yl)amino]-N-(2,2,2-trifluoroethyl)spiro[3.3]heptane-2-sulfonamide]	63%	93%	96%
CN(c1ncnc2[nH]ccc12)C1CC2(C1)CC(S(=O)(=O)NC1CC1)C2 (stereo not drawn) [Compound 5, N-cyclopropyl-6-[methyl(7H-pyrrolo[2,3-d]pyrimidin-4-yl)amino]spiro[3.3]heptane-2-sulfonamide]	61%	94%	99%
CN(c1ncnc2[nH]ccc12)C1CC2(CC(NS(=O)(=O)c3ccccc3)C2)C1 (stereo not drawn) [Compound 11, N-[2-[methyl(7H-pyrrolo[2,3-d]pyrimidin-4-yl)amino]spiro[3.3]heptan-6-yl]benzenesulfonamide]	11%	81%	95%
CN(c1ncnc2[nH]ccc12)C1CC2(CC(NS(C)(=O)=O)C2)C1 (stereo not drawn) [Compound 15, N-[2-[methyl(7H-pyrrolo[2,3-d]pyrimidin-4-yl)amino]spiro[3.3]heptan-6-yl]methanesulfonamide]	31%	78%	95%
CCCNS(=O)(=O)C1CC2(CC(N(C)c3ncnc4[nH]ccc34)C2)C1 (stereo not drawn) [Compound 3, 6-[methyl(7H-pyrrolo[2,3-d]pyrimidin-4-yl)amino]-N-propyl-spiro[3.3]heptane-2-sulfonamide]	57%	92%	98%
CN(c1ncnc2[nH]ccc12)C1CC2(C1)CC(S(=O)(=O)NC1CCC1)C2 (stereo not drawn) [Compound 9, N-cyclobutyl-6-[methyl(7H-pyrrolo[2,3-d]pyrimidin-4-yl)amino]spiro[3.3]heptane-2-sulfonamide]	64%	93%	99%
CN(c1ncnc2[nH]ccc12)C1CC2(C1)CC(S(=O)(=O)NC1CCCC1)C2 (stereo not drawn) [Compound 10, N-cyclopentyl-6-[methyl(7H-pyrrolo[2,3-d]pyrimidin-4-yl)amino]spiro[3.3]heptane-2-sulfonamide]	52%	84%	97%
CC(C)CNS(=O)(=O)C1CC2(CC(N(C)c3ncnc4[nH]ccc34)C2)C1 (stereo not drawn) [Compound 7, N-isobutyl-6-[methyl(7H-pyrrolo[2,3-d]pyrimidin-4-yl)amino]spiro[3.3]heptane-2-sulfonamide]	42%	88%	97%
CC(C)NS(=O)(=O)C1CC2(CC(N(C)c3ncnc4[nH]ccc34)C2)C1 (stereo not drawn) [Compound 4, N-isopropyl-6-[methyl(7H-pyrrolo[2,3-d]pyrimidin-4-yl)amino]spiro[3.3]heptane-2-sulfonamide]	23%	75%	95%
CN(c1ncnc2[nH]ccc12)C1CC2(C1)CC(S(=O)(=O)NC(C)(C)C)C2 (stereo not drawn) [Compound 8, N-tert-butyl-6-[methyl(7H-pyrrolo[2,3-d]pyrimidin-4-yl)amino]spiro[3.3]heptane-2-sulfonamide]	37%	82%	94%
CNS(=O)(=O)C1CC2(CC(N(C)c3ncnc4[nH]ccc34)C2)C1 (stereo not drawn) [Compound 1, N-methyl-6-[methyl(7H-pyrrolo[2,3-d]pyrimidin-4-yl)amino]spiro[3.3]heptane-2-sulfonamide]	71%	92%	96%
CN(c1ncnc2[nH]ccc12)C1CC2(CC(NS(=O)(=O)c3ccc(C(F)(F)F)cc3)C2)C1 (stereo not drawn) [Compound 14, N-[2-[methyl(7H-pyrrolo[2,3-d]pyrimidin-4-yl)amino]spiro[3.3]heptan-6-yl]-4-(trifluoromethyl)benzenesulfonamide]	1%	56%	92%
